# Laboratory results reported in patent publication US20250296960A1, “PEPTIDE COMPOSITIONS AND METHODS OF USE THEREOF” (priority 2022, published 2025).
# Several values for one entry are separate records, joined by “and”; a condition that tells them apart may be missing. Equal values may be shown once.
# How the values were obtained:
# [1] = Body weight loss in normal C57BL/6 mice, subcutaneous dosing; format: in vivo; settings: for Weight loss (%): normal mice, after 48 or 72 hours
# Method: To confirm the therapeutic effect of the peptide in vivo, polypeptides were administered to mice to measure changes in body weight. […] The peptides were delivered at 0.02% polysorbate 80 (PS80) in PBS and dosing volume was 10 mL/kg. Body weight was monitored 6 h, QD.
# To confirm the therapeutic effect of the peptide in obesity, diabetes, or NASH, polypeptides were administered to mice to measure changes in food intake, blood glucose and body weight. […] In addition, a NASH animal model was prepared by feeding a high fat, high fructose, high cholesterol diet to normal C57BL/6 mice (approximately 6 weeks old) for approximately 21 weeks, and increasing the body weights of the mice to approximately 50 g on average. Thereafter, polypeptides were administered by subcutaneous injection at dose of 20 nmol/kg once every other day for 2 weeks. Body weight and food intake were measured once every other day given points of time. After 2 weeks of treatment period, mice were sacrificed, then liver weight, hepatic triglyceride, and NASH related biomarkers were measured.
# DD01 administered at 40 nmol/kg, s.c. Q2D as positive control was delivered at 0.02% PS80 in PBS and dosing volume was 10 mL/kg. Body weight was monitored QD for 4 days.
# The peptides were delivered at 0.02% PS80 in PBS and dosing volume was 10 mL/kg. Food intake, blood glucose, and body weight changes were monitored QD.
# human GCGR = target: T1, human GCGR (Homo sapiens, UniProt P47871); assay: cAMP assay (HitHunter cAMP) in GCGR-expressing CHO-K1 cells (GCGR+ cells); format: cell-based
# T1 construct: host or cells: CHO-K1
# T1 sequence (P47871 26-477): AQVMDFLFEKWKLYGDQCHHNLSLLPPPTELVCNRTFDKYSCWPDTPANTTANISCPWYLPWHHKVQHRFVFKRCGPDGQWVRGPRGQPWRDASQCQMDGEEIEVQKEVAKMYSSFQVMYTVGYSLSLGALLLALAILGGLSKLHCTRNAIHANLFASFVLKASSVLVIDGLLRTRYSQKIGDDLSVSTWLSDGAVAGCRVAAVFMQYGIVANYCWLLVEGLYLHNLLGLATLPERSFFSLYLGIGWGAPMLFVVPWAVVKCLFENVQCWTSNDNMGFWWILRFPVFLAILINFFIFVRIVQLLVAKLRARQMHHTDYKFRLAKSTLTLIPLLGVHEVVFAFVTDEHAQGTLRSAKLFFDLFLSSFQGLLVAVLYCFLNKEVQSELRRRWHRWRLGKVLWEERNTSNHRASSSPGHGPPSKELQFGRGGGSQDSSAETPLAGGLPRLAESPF
# Method: (§1) The cells were seeded in a 96-well plate at 7×10^3 cells/well using cell plate reagent and incubated the cells overnight at 37° C. and 5% CO2. To perform the cAMP detection assay, cell plating reagent were replaced with the cAMP Assay buffer. Each of the wells was then treated with the diluted peptide and incubated for 30 minutes under conditions of a temperature of 37° C. in a CO2 incubator.
# (§2) After the incubation, cAMP Antibody reagent and Working cAMP detection solution to all wells. Incubate the plate for 1 hour at Room temperature in the dark. Then, cAMP Solution A was added and incubated for 3 hours at room temperature in the dark. Subsequently, the luminescence was measured using the microplate reader device.
# human GLP-1R = target: T2, human GLP-1R (Homo sapiens, UniProt P43220); assay: cAMP assay (HitHunter cAMP) in GLP-1R-expressing CHO-K1 cells (GLP-1R+ cells); format: cell-based
# T2 construct: host or cells: CHO-K1
# T2 sequence (P43220 24-463): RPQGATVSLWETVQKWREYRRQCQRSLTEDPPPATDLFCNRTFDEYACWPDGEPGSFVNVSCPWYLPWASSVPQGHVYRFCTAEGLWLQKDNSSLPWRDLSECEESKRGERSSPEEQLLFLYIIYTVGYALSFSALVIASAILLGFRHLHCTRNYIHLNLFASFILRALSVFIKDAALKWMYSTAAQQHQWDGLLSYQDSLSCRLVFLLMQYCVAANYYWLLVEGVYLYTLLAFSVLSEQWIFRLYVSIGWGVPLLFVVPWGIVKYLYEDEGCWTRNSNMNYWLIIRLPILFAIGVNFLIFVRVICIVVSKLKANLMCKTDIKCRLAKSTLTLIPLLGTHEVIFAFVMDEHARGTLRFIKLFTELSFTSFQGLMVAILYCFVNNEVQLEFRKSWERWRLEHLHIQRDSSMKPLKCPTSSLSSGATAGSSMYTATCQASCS
# Method: as §1, §2
# human GIPR = target: T3, human GIPR (Homo sapiens, UniProt P48546); assay: cAMP assay (HitHunter cAMP) in GIPR-expressing CHO-K1 cells (GIPR+ cells); format: cell-based
# T3 construct: host or cells: CHO-K1
# T3 sequence (P48546 22-466): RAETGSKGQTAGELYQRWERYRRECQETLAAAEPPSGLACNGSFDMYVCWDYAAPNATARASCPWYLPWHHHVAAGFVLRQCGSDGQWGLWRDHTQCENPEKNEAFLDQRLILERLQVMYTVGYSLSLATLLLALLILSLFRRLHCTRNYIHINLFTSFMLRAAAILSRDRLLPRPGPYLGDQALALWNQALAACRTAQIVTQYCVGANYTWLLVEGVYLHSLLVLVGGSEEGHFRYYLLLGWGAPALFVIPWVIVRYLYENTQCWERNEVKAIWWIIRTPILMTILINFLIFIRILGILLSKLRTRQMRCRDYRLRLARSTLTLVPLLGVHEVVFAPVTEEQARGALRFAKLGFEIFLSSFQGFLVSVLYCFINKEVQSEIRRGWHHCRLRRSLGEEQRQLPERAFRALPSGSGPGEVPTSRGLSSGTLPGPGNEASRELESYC
# Method: as §1, §2
# [2] = Table 13, EC50 of STD peptide over EC50 of peptide
# [3] = Table 14, normalised to activity at GLP-1R
# [4] = Table 19, normalised to activity at GLP-1R
# [5] = Table 24, ratio of EC50 of native ligand over peptide
smiles,measurement,setting,value
CC[C@H](C)[C@H](NC(=O)[C@H](CC(C)C)NC(=O)[C@H](Cc1c[nH]c2ccccc12)NC(=O)[C@H](CCC(N)=O)NC(=O)[C@@H](NC(=O)[C@H](Cc1ccccc1)NC(=O)[C@H](CC(=O)O)NC(=O)[C@H](CCCNC(=N)N)NC(=O)[C@H](C)NC(=O)[C@H](CCSC)NC(=O)[C@H](CCSC)NC(=O)[C@H](Cc1ccc(O)cc1)NC(=O)[C@H](CC(=O)O)NC(=O)[C@H](CC(C)C)NC(=O)[C@H](Cc1ccc(O)cc1)NC(=O)[C@H](CCCCN)NC(=O)[C@H](CO)NC(=O)[C@H](Cc1ccc(O)cc1)NC(=O)[C@H](CC(=O)O)NC(=O)[C@H](CO)NC(=O)[C@@H](NC(=O)[C@H](Cc1ccccc1)NC(=O)[C@@H](NC(=O)CNC(=O)[C@H](CCC(N)=O)NC(=O)C(C)(C)NC(=O)[C@@H](N)Cc1c[nH]cn1)[C@@H](C)O)[C@@H](C)O)C(C)C)C(=O)N[C@@H](CCC(=O)O)C(=O)NCC(=O)NCC(=O)N1CCC[C@H]1C(=O)N[C@@H](CO)C(=O)N[C@@H](CO)C(=O)NCC(=O)N[C@@H](C)C(=O)N1CCC[C@H]1C(=O)N1CCC[C@H]1C(=O)N1CCC[C@H]1C(=O)N[C@@H](CO)C(=O)N[C@@H](CSC1CC(=O)N(CCNC(=O)COCCOCCNC(=O)COCCOCCNC(=O)CC[C@H](NC(=O)CCCCCCCCCCCCCCCCC(=O)O)C(=O)O)C1=O)C(N)=O (some centres unmarked) [5A],"body weight loss (BWL), in words","[1]; Example 3, 20 nmol/kg QD or 30 nmol/kg Q2D s.c., 4 days",Superior body weight loss
same,"body weight loss effect, in words","[1]; Example 5, 20 nmol/kg s.c. QD, 4 days",Superior body weight loss effects
same,Weight loss (%),[1]; 10 nmol/kg QD,15.7 ± 2.2%
same,Weight loss (%),[1]; 20 nmol/kg QD,20.1 ± 1.3% and 18.8 ± 0.9% and 19.3 ± 1.9% and 22.9 ± 1.5%
same,Weight loss (%),[1]; 30 nmol/kg Q2D,14.6 ± 1.8%
same,Percentage change in EC50 relative to GCG at human GCGR (%),"human GCGR; Table 10, lipidated (A type) peptides",14%
same,"Activity relative to STD peptide (%), Glucagon",human GCGR; [2],8%
same,"Activity relative to GLP-1 (%), Glucagon",human GCGR; [3],10%
same,"Activity relative to STD peptide (%), GCGR",human GCGR; Table 18,8%
same,"Activity relative to GLP-1 (%), GCGR",human GCGR; [4],2%
same,"Relative % to native ligand, GCGR",human GCGR; [5],14%
same,"Ratio vs. GLP-1R, GCGR",human GCGR; Table 25,7
same,"Relative % to non-lipidated peptide, GCGR",human GCGR; Table 26,2%
same,Percentage change in EC50 relative to GLP-1 at human GLP-1R (%),"human GLP-1R; Table 9, lipidated (A type) peptides",201%
same,"Activity relative to STD peptide (%), GLP-1",human GLP-1R; [2],84%
same,"Activity relative to GLP-1 (%), GLP-1",human GLP-1R; [3],100%
same,"Activity relative to STD peptide (%), GLP-1R",human GLP-1R; Table 18,520%
same,"Activity relative to GLP-1 (%), GLP-1R",human GLP-1R; [4],100%
same,"Relative % to native ligand, GLP-1R",human GLP-1R; [5],201%
same,"Ratio vs. GLP-1R, GLP-1R",human GLP-1R; Table 25,100
same,"Relative % to non-lipidated peptide, GLP-1R",human GLP-1R; Table 26,33%
same,Percentage change in EC50 relative to GIP at human GIPR (%),"human GIPR; Table 11, lipidated (A type) peptides",5%
same,"Activity relative to STD peptide (%), GIP",human GIPR; [2],1%
same,"Activity relative to GLP-1 (%), GIP",human GIPR; [3],2%
same,"Activity relative to STD peptide (%), GIPR",human GIPR; Table 18,0%
same,"Activity relative to GLP-1 (%), GIPR",human GIPR; [4],0%
same,"Relative % to native ligand, GIPR",human GIPR; [5],5%
same,"Ratio vs. GLP-1R, GIPR",human GIPR; Table 25,2
same,"Relative % to non-lipidated peptide, GIPR",human GIPR; Table 26,167%
